Reference: BindingDB's records for patent US12065447 (Shanghai Institute of Materia Medica, 2024)

What follows are compounds tested against T1, Receptor-interacting serine/threonine-protein kinase 1 (Homo sapiens, UniProt Q13546) (assay: Cell Viability Test).
T1 sequence (Q13546 whole entry): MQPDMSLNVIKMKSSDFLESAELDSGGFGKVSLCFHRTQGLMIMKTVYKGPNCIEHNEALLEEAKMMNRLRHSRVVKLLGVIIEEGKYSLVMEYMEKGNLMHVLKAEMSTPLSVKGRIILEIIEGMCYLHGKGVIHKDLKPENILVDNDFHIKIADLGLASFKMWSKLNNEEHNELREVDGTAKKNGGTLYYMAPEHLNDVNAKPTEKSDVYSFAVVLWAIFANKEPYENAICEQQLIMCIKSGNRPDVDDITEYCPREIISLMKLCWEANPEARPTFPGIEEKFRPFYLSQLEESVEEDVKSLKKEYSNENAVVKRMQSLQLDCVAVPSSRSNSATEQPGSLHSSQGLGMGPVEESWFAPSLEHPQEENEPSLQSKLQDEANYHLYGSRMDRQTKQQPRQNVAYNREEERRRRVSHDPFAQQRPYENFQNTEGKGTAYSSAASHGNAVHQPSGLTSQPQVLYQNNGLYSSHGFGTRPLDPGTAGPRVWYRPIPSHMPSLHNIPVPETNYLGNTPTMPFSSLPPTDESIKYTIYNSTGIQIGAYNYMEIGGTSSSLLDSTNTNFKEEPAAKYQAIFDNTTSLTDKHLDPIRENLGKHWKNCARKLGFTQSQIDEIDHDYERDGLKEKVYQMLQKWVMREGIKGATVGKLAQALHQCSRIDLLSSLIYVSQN
Excerpt: TNFalpha induced U937 cell programmed necroptosis system was used to screen for compounds with RIP 1 kinase inhibitory activity.

SMILES | IC50
CN1C(=O)[C@@H](NC(=O)c2ncc(Cc3ccccc3)o2)COc2ccc(C#Cc3cccnc3)cc21 [US12065447, Compound ZB-R-20] | < 0.5 nM
CN1C(=O)[C@@H](NC(=O)c2ncn(Cc3ccccc3)n2)COc2ccc(C#Cc3cccnc3)cc21 [US12065447, Compound ZB-R-24] | < 1 nM
CN1C(=O)[C@@H](NC(=O)c2cc(Cc3ccccc3)ccn2)COc2ccc(C#Cc3cccnc3)cc21 [US12065447, Compound ZB-R-25] | < 2 nM
Cc1c(C#Cc2cnn(C)c2)sc2c1SC[C@H](NC(=O)c1nnc(Cc3ccccc3)[nH]1)C(=O)N2C [US12065447, Compound ZB-R-39] | 0.17 nM
Cc1c(C#Cc2cccnc2)sc2c1SC[C@H](NC(=O)c1nnc(Cc3ccccc3)[nH]1)C(=O)N2C [US12065447, Compound ZB-R-42] | 0.32 nM
Cc1c(C#CC2CCOCC2)sc2c1SC[C@H](NC(=O)c1nnc(Cc3ccccc3)[nH]1)C(=O)N2C [US12065447, Compound ZB-R-44] | 4.08 nM
Cc1c(C#CC2CC2)sc2c1SC[C@H](NC(=O)c1nnc(Cc3ccccc3)[nH]1)C(=O)N2C [US12065447, Compound ZB-R-45] | 8.13 nM
Cc1c(C#Cc2ccccn2)sc2c1SC[C@H](NC(=O)c1nnc(Cc3ccccc3)[nH]1)C(=O)N2C [US12065447, Compound ZB-R-46] | 5.39 nM
Cc1c(C#Cc2ccncc2)sc2c1SC[C@H](NC(=O)c1nnc(Cc3ccccc3)[nH]1)C(=O)N2C [US12065447, Compound ZB-R-47] | 0.39 nM
CN1C(=O)[C@@H](NC(=O)c2n[nH]c(Cc3ccccc3)n2)COc2ccc(C#Cc3ccccn3)cc21 [US12065447, Compound ZB-R-50] | 0.26 nM
CN1C(=O)[C@@H](NC(=O)c2n[nH]c(Cc3ccccc3)n2)COc2ccc(C#Cc3cccnc3)cc21 [US12065447, Compound ZB-R-51] | < 0.5 nM
CN1C(=O)[C@@H](NC(=O)c2n[nH]c(Cc3ccccc3)n2)COc2ccc(C#Cc3ccncc3)cc21 [US12065447, Compound ZB-R-52] | 0.42 nM
CN1C(=O)[C@@H](NC(=O)c2n[nH]c(Cc3ccccc3)n2)COc2ccc(C#Cc3cnn(C)c3)cc21 [US12065447, Compound ZB-R-53] | 0.11 nM
CN1C(=O)[C@@H](NC(=O)c2n[nH]c(Cc3ccccc3)n2)COc2ccc(C#CC3CCOCC3)cc21 [US12065447, Compound ZB-R-54] | 0.1 nM
COCC#Cc1ccc2c(c1)N(C)C(=O)[C@@H](NC(=O)c1nnc(Cc3ccccc3)[nH]1)CO2 [US12065447, Compound ZB-R-68] | 0.2 nM
CN1C(=O)[C@@H](NC(=O)c2n[nH]c(Cc3ccccc3)n2)COc2ccc(C#CC(C)(C)O)cc21 [US12065447, Compound ZB-R-76] | 0.54 nM
CN1C(=O)[C@@H](NC(=O)c2n[nH]c(Cc3ccccc3)n2)COc2ccc(C#CC3(O)COC3)cc21 [US12065447, Compound ZB-R-78] | 0.35 nM
Cc1cc([C@](C)(O)C#Cc2ccc3c(c2)N(C)C(=O)[C@@H](NC(=O)c2nnc(Cc4ccccc4)[nH]2)CO3)no1 [US12065447, Compound ZB-R-80] | 0.31 nM
Cc1cc([C@@](C)(O)C#Cc2ccc3c(c2)N(C)C(=O)[C@@H](NC(=O)c2nnc(Cc4ccccc4)[nH]2)CO3)no1 [US12065447, Compound ZB-R-81] | 0.29 nM
Cc1c(C#Cc2cncn2C)sc2c1SC[C@H](NC(=O)c1nnc(Cc3ccccc3)[nH]1)C(=O)N2C [US12065447, Compound ZB-R-82] | 0.3 nM
COCC#Cc1sc2c(c1C)SC[C@H](NC(=O)c1nnc(Cc3ccccc3)[nH]1)C(=O)N2C [US12065447, Compound ZB-R-84] | 0.19 nM
Cc1c(C#CC(C)(C)O)sc2c1SC[C@H](NC(=O)c1nnc(Cc3ccccc3)[nH]1)C(=O)N2C [US12065447, Compound ZB-R-85] | 1.09 nM
Cc1c(C#CC2(O)COC2)sc2c1SC[C@H](NC(=O)c1nnc(Cc3ccccc3)[nH]1)C(=O)N2C [US12065447, Compound ZB-R-87] | 0.2 nM
Cc1cc([C@](C)(O)C#Cc2sc3c(c2C)SC[C@H](NC(=O)c2nnc(Cc4ccccc4)[nH]2)C(=O)N3C)no1 [US12065447, Compound ZB-R-89] | 1.7 nM
